Results from the supplement of paper PMC10307832.

Assays:
Assay in all cases: relative viability (nuclei count vs DMSO), 5 days (fraction); higher = more cells survive
Elesclomol + Crizotinib = compound: CN(NC(=O)CC(=O)NN(C)C(=S)c1ccccc1)C(=S)c1ccccc1 [Elesclomol] + C[C@@H](Oc1cc(-c2cnn(C3CCNCC3)c2)cnc1N)c1c(Cl)ccc(F)c1Cl [Crizotinib] (partner 1 µM)
Method in brief: (§1)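 A single step with final 0.05% Triton X-100, 1% formaldehyde and 1 ug/ml Hoechst fixed the cells and stained nuclei 5 days after treatment. Lung cancer cell lines in 1536-well plates had been treated by pin tool the day after seeding with one drug alone or a fixed anchor-drug dose plus five library-drug doses (not always all listed) in √10 steps, and nuclei were counted on 4× images. Relative viability is the ratio of nuclei in treated wells to nuclei in vehicle wells, taken as the median of duplicate plates.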

Elesclomol + Pictilisib = compound: CN(NC(=O)CC(=O)NN(C)C(=S)c1ccccc1)C(=S)c1ccccc1 [Elesclomol] + CS(=O)(=O)N1CCN(Cc2cc3nc(-c4cccc5[nH]ncc45)nc(N4CCOCC4)c3s2)CC1 [Pictilisib] (partner 1 µM)
Method in brief: as §1

Elesclomol + Phenformin = compound: CN(NC(=O)CC(=O)NN(C)C(=S)c1ccccc1)C(=S)c1ccccc1 [Elesclomol] + N=C(N)NC(=N)NCCc1ccccc1 [Phenformin] (partner 250 µM)
Method in brief: as §1

Elesclomol + Linsitinib = compound: CN(NC(=O)CC(=O)NN(C)C(=S)c1ccccc1)C(=S)c1ccccc1 [Elesclomol] + C[C@]1(O)C[C@@H](c2nc(-c3ccc4ccc(-c5ccccc5)nc4c3)c3c(N)nccn32)C1 [Linsitinib] (partner 1 µM)
Method in brief: as §1

Elesclomol + Luminespib = compound: CN(NC(=O)CC(=O)NN(C)C(=S)c1ccccc1)C(=S)c1ccccc1 [Elesclomol] + CCNC(=O)c1noc(-c2cc(C(C)C)c(O)cc2O)c1-c1ccc(CN2CCOCC2)cc1 [Luminespib] (partner 0.01 µM)
Method in brief: as §1

Cell Line | relative viability (Elesclomol + Crizotinib; first compound 0.003162 µM) | relative viability (Elesclomol + Crizotinib; first compound 0.01 µM) | relative viability (Elesclomol + Crizotinib; first compound 0.03162 µM) | relative viability (Elesclomol + Crizotinib; first compound 0.1 µM) | relative viability (Elesclomol + Pictilisib; first compound 0.003162 µM) | relative viability (Elesclomol + Pictilisib; first compound 0.01 µM) | relative viability (Elesclomol + Pictilisib; first compound 0.03162 µM) | relative viability (Elesclomol + Pictilisib; first compound 0.1 µM) | relative viability (Elesclomol + Phenformin; first compound 0.003162 µM) | relative viability (Elesclomol + Phenformin; first compound 0.01 µM) | relative viability (Elesclomol + Phenformin; first compound 0.03162 µM) | relative viability (Elesclomol + Phenformin; first compound 0.1 µM) | relative viability (Elesclomol + Linsitinib; first compound 0.003162 µM) | relative viability (Elesclomol + Linsitinib; first compound 0.01 µM) | relative viability (Elesclomol + Linsitinib; first compound 0.03162 µM) | relative viability (Elesclomol + Linsitinib; first compound 0.1 µM) | relative viability (Elesclomol + Luminespib; first compound 0.003162 µM) | relative viability (Elesclomol + Luminespib; first compound 0.01 µM) | relative viability (Elesclomol + Luminespib; first compound 0.03162 µM) | relative viability (Elesclomol + Luminespib; first compound 0.1 µM)
NCI-H647 | 1.1 | 0.813 | 0.39 | 0.0391 | 0.492 | 0.168 | 0.204 | 0.0838 | 0.546 | 0.234 | 0.104 | 0.0401 | 1.1 | 0.801 | 0.753 | 0.0738 | 0.113 | 0.0912 | 0.0748 | 0.0628
A-427 | 0.959 | 0.744 | 0.895 | 0.277 | 0.678 | 0.345 | 0.648 | 0.45 | 0.342 | 0.216 | 0.319 | 0.104 | 1.1 | 1.08 | 1.14 | 0.578 | 0.701 | 0.498 | 0.27 | 0.117
LXF-289 | 0.811 | 0.775 | 0.767 | 0.588 | 0.781 | 0.709 | 0.749 | 0.501 | 0.516 | 0.406 | 0.487 | 0.467 | 0.941 | 0.863 | 0.938 | 0.693 | 0.676 | 0.661 | 0.691 | 0.316
NCI-H727 | 0.681 | 0.453 | 0.096 | 0.0428 | 0.331 | 0.226 | 0.158 | 0.0437 | 0.547 | 0.488 | 0.402 | 0.177 | 0.297 | 0.217 | 0.117 | 0.0471 | 0.388 | 0.478 | 0.22 | 0.123
NCI-H1437 | 0.769 | 0.457 | 0.504 | 0.329 | 0.391 | 0.321 | 0.198 | 0.137 | 0.292 | 0.252 | 0.246 | 0.217 | 0.883 | 0.56 | 0.271 | 0.186 | 0.967 | 0.689 | 0.445 | 0.436
RERF-LC-KJ | 0.832 | 0.473 | 0.373 | 0.336 | 0.408 | 0.19 | 0.243 | 0.234 | 0.341 | 0.347 | 0.267 | 0.218 | 0.897 | 0.752 | 0.412 | 0.322 | 0.656 | 0.418 | 0.34 | 0.457
NCI-H1792 | 0.939 | 0.945 | 1 | 1.01 | 0.262 | 0.171 | 0.3 | 0.357 | 0.342 | – | 0.339 | 0.118 | 0.506 | 0.387 | 0.584 | 0.577 | 0.385 | 0.354 | 0.431 | 0.329
HCC-44 | 0.767 | 0.73 | 0.808 | 0.457 | 0.592 | 0.578 | 0.554 | 0.322 | 0.375 | 0.148 | 0.091 | 0.0922 | 0.678 | 0.604 | 0.623 | 0.345 | 1.01 | 0.86 | 0.213 | 0.178
EPLC-272H | 1.03 | – | 0.837 | 0.135 | 0.349 | – | 0.341 | 0.11 | 0.293 | – | 0.291 | 0.172 | 1.25 | – | 1.05 | 0.26 | 0.333 | – | 0.576 | 0.125
NCI-H358 | 0.215 | 0.151 | 0.204 | 0.171 | 0.24 | 0.196 | 0.191 | 0.163 | 0.305 | 0.158 | 0.148 | 0.166 | 0.279 | 0.234 | 0.152 | 0.156 | 0.194 | 0.141 | 0.137 | 0.117
NCI-H596 | 0.92 | 0.948 | 0.95 | 0.184 | 0.374 | 0.341 | 0.346 | 0.218 | 0.734 | 0.693 | 0.714 | 0.335 | 1.12 | 1.13 | 0.978 | 0.267 | 0.845 | 0.924 | 0.787 | 0.186
NCI-H322M | 0.911 | – | 0.98 | 0.552 | 0.478 | – | 0.519 | 0.382 | 0.769 | 0.32 | 0.47 | 0.0999 | 0.977 | – | 0.916 | 0.606 | 0.311 | 0.288 | 0.231 | 0.14
NCI-H1563 | 0.649 | 0.623 | 0.502 | 0.453 | 0.656 | 0.582 | 0.587 | 0.486 | 0.589 | 0.569 | 0.516 | 0.479 | 0.817 | 0.705 | 0.632 | 0.468 | 0.518 | 0.472 | 0.471 | 0.432
